Consider 23 compounds from ChEMBL document CHEMBL2331127, “3D-QSAR and docking studies of pentacycloundecylamines at the sigma-1 (σ1) receptor” (Bioorg Med Chem Lett, 2013).

For test [1], the target named is Sigma non-opioid intracellular receptor 1 (Cavia porcellus, UniProt Q60492). Description: Displacement of [3H](+)-pentazocine from sigma-1 receptor in guinea pig brain.
Test [2] addresses Sigma non-opioid intracellular receptor 1 (Rattus norvegicus, UniProt Q9R0C9). Description: Displacement of [3H](+)-pentazocine from sigma-1 receptor in rat liver homogenate. Type of test: tissue-based. (In a radioligand displacement assay an active substance lowers the binding of a labelled ligand.)

The Ki is the dissociation constant of the complex between target and ligand, obtained from inhibition or displacement. In general, IC50 refers to the concentration needed to halve the response being measured. A higher IC50 goes with weaker potency in that assay.

Sequence of Sigma non-opioid intracellular receptor 1 (Cavia porcellus, UniProt Q60492) (Q60492 whole entry): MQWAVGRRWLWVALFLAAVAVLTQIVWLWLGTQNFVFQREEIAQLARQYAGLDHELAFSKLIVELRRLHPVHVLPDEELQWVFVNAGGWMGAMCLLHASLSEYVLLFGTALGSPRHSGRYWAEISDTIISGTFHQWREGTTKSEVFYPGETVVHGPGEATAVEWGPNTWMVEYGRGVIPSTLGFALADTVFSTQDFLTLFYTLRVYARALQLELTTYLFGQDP
Sequence of Sigma non-opioid intracellular receptor 1 (Rattus norvegicus, UniProt Q9R0C9) (Q9R0C9 whole entry): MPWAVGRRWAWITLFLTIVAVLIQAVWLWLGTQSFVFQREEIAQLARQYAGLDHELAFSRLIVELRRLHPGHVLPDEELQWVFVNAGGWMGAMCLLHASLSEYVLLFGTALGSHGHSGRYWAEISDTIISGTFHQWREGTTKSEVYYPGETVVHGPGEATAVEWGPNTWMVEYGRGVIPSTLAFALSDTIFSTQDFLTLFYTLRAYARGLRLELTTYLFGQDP

For `OC12C3C4CC5C6C4C1C6C(C53)N2Cc1ccccc1` (stereo not drawn), the Ki in test [1] is 0.102 µM.

In test [1], `OC12C3C4CC5C6C4C1C6C(C53)N2CCCc1ccccc1` (stereo not drawn) gave a Ki of 0.0209 µM.

Turning to `OC12C3C4CC5C6C4C1C6C(C53)N2CCCCc1ccccc1` (stereo not drawn), in test [1], the Ki is 0.00891 µM.

In the case of `COc1ccc(CN2C3C4C5CC6C7C5C3C7C2(O)C64)cc1` (stereo not drawn), the Ki in test [1] was 0.102 µM.

As for `OC12C3C4CC5C6C4C1C6C(C53)N2CCc1ccccc1` (stereo not drawn), in test [1], the Ki was 0.02 µM.

In test [1], `OC12C3C4CC5C6C4C1C6C(C53)N2CCc1ccc(Cl)c(Cl)c1` (stereo not drawn) had a Ki of 0.01 µM.

For the compound `OC12C3C4CC5C6C4C1C6C(C53)N2CCc1cccc(Cl)c1` (stereo not drawn), the Ki in test [1] was 0.0209 µM.

Compound `OC12C3C4CC5C6C4C1C6C(C53)N2CCc1ccc(Br)cc1` (stereo not drawn) had a Ki in test [1] of 0.01 µM.

Take `OC12C3C4CC5C6C4C1C6C(C53)N2Cc1cccc(Cl)c1` (stereo not drawn): the Ki in test [1] was 0.186 µM.

In test [1], `Cc1cccc(CN2C3C4C5CC6C7C5C3C7C2(O)C64)c1` (stereo not drawn) gave a Ki of 0.0977 µM.

As to `OC12C3C4CC5C6C4C1C6C(C53)N2Cc1cccc(C(F)(F)F)c1` (stereo not drawn), the Ki in test [1] is 0.269 µM.

The compound `O=[N+]([O-])c1cccc(CN2C3C4C5CC6C7C5C3C7C2(O)C64)c1` (stereo not drawn) had a Ki in test [1] of 1.1 µM.

For `OC12C3C4CC5C6C4C1C6C(C53)N2Cc1ccccc1F` (stereo not drawn), the Ki in test [1] is 0.182 µM.

In test [1], `OC12C3C4CC5C6C4C1C6C(C53)N2Cc1ccc(F)c(F)c1` (stereo not drawn) showed a Ki of 0.2 µM.

For the compound `OC12C3C4CC5C6C4C1C6C(C53)N2Cc1ccc(F)cc1` (stereo not drawn), the Ki in test [1] was 0.107 µM.

Turning to `OC12C3C4CC5C6C4C1C6C(C53)N2Cc1ccc(I)cc1` (stereo not drawn), affinity in test [1] was put at a Ki of 0.0813 µM.

`OC12C3C4CC5C6C4C1C6C(C53)N2Cc1cccc(I)c1` (stereo not drawn): the Ki in test [1] is 0.17 µM.

In the case of `OC12C3C4CC5C6C4C1C6C(C53)N2Cc1ccc(Br)cc1` (stereo not drawn), affinity in test [1] was put at a Ki of 0.0851 µM.

For `c1ccc(CCNC23OC4C5C6CC(C7C6C4C72)C53)cc1` (stereo not drawn), in test [2], the IC50 is 1.54 µM.

Compound `OC12C3C4CC5C6C4C1C6C(C53)N2Cc1cccc(Br)c1` (stereo not drawn) showed a Ki in test [1] of 0.209 µM.

In turn, `c1ccc(CNC23OC4C5C6CC(C7C6C4C72)C53)cc1` (stereo not drawn) displayed an IC50 in test [2] of 1.78 µM.

As for `OC12C3C4CC5C6C4C1C6C(C53)N2CCc1cccc(F)c1` (stereo not drawn), in test [1], the Ki was 0.01 µM.

`OC12C3C4CC5C6C4C1C6C(C53)N2Cc1cccc(F)c1` (stereo not drawn) gave a Ki in test [1] of 0.151 µM.
